Measurements from BigSolDB 2.1.

O=C1C=CC(=O)c2ccccc21
Settings	solubility (mole fraction)
in acetone, 293.27 K	0.0362
in acetone, 295.46 K	0.0373
in acetone, 295.8 K	0.0377
in acetone, 298.25 K	0.0399
in acetone, 298.51 K	0.0403
in acetone, 299.07 K	0.0411
in acetone, 300.66 K	0.0437
in acetone, 302.06 K	0.0467
in acetone, 304 K	0.0503
in acetone, 305.3 K	0.0532
in acetone, 308.24 K	0.0584
in acetone, 311.24 K	0.0639
in acetone, 312.91 K	0.0683
in acetone, 314.97 K	0.0727
in acetone, 316.33 K	0.0767
in acetone, 318.06 K	0.081
in acetone, 319.63 K	0.0856
in ethanol, 279.8 K	0.00145
in ethanol, 285.78 K	0.00221
in ethanol, 289.05 K	0.00277
in ethanol, 292.72 K	0.00335
in ethanol, 296.52 K	0.00412
in ethanol, 299.87 K	0.00487
in ethanol, 303.25 K	0.00596
in ethanol, 305.99 K	0.00696
in ethanol, 309.13 K	0.00825
in ethanol, 311.85 K	0.00945
in ethanol, 314.73 K	0.0109
in ethanol, 316.84 K	0.0121
in ethanol, 319.52 K	0.0134
in ethanol, 321.15 K	0.0145
in ethanol, 322.93 K	0.0157
in ethanol, 328.25 K	0.0199
in ethanol, 329.13 K	0.0212
in ethanol, 331.34 K	0.0235
in ethanol, 333.04 K	0.0256
in ethanol, 334.13 K	0.0274
in ethanol, 335.43 K	0.0294
in n-butanol, 302.1 K	0.00657
in n-butanol, 307.2 K	0.00908
in n-butanol, 312.32 K	0.012
in n-butanol, 317.1 K	0.0152
in n-butanol, 319.33 K	0.017
in n-butanol, 320.94 K	0.0183
in n-butanol, 322.16 K	0.0199
in n-butanol, 325.85 K	0.0238
in n-butanol, 330.35 K	0.0307
in n-butanol, 334.33 K	0.0377
in n-butanol, 336.45 K	0.0434
in n-butanol, 339.23 K	0.05
in n-butanol, 341.3 K	0.056
in n-butanol, 343.26 K	0.0624
in n-butanol, 344.6 K	0.0695
in n-butanol, 346.03 K	0.0763
in toluene, 294.1 K	0.0476
in toluene, 297.82 K	0.0537
in toluene, 300.35 K	0.0585
in toluene, 302.68 K	0.0631
in toluene, 304.44 K	0.0668
in toluene, 306.58 K	0.0723
in toluene, 310.16 K	0.081
in toluene, 313.15 K	0.089
in toluene, 315.25 K	0.094
in toluene, 317.27 K	0.0994
in toluene, 319.93 K	0.107
in toluene, 321.45 K	0.113
in toluene, 322.53 K	0.116
in toluene, 322.93 K	0.118
in toluene, 327.2 K	0.133
in toluene, 330.45 K	0.145
in toluene, 331.95 K	0.153
